# Measurements taken from patent publication US20260232666A1, “COMPOSITIONS AND METHODS FOR INHIBITION OF RAS” (TheRas, Inc., priority 2023, published 2026).
# Assays:
# [1] = target: T1, GppNHp-loaded KRAS4b (amino acids 1-169) G12C/C118S protein (Homo sapiens, UniProt P01116, C118S/G12C); assay: Covalent cysteine 12 modification by MALDI-TOF MS, GppNHp-loaded KRAS G12C; format: binding; conditions: 15 minutes reaction time point
# T1 construct: KRAS4b (amino acids 1-169) G12C/C118S protein; made in house
# Procedure: (§1) Biological Example 1: Covalent Cysteine 12 Modification Analysis Using Matrix Assisted Laser Desorption Ionization-Time of Flight Mass Spectrometry (MALDI-TOF MS)
# (§2) MALDI-TOF MS analysis was performed using 1 μM protein (KRAS G12C), and 1:2.5 protein to compound ratio.
# (§3) Reaction: 1 μM of GppNHp, GTP, or GDP-loaded KRAS4b (amino acids 1-169) G12C/C118S protein (produced in-house by Protein Expression Laboratory, FNLCR/Leidos Biomed) in 20 mM 4-(2-hydroxyethyl)-1-piperazineethanesulfonic acid (HEPES) buffer containing 150 mM NaCl, 1 mM MgCl2, pH 7.3 was prepared freshly before assay. Twelve-μL aliquots of protein were dispensed onto low volume 384-well plate, then 30 nL of tested compounds from 1 mM DMSO stocks were added to appropriate wells using ECHO 555 acoustic liquid handler (Labcyte Inc.). For each reaction/assay, three blanks were prepared by mixing 12 μL of protein solution with 30 nL DMSO. The contents of the wells were carefully mixed by aspiration, and then each plate was sealed with an adhesive cover, centrifuged at 2000 g for 1 minute, and kept in the dark at room temperature until 5 min, 15 min, 30 min, 2 h, or 6 h collections.
# (§4) Target pretreatment: Before each assay MALDI target (Bruker MPT 384 ground steel BC) was pre-treated by pipetting on each spot 0.75 μL of saturated sinapinic acid in acetonitrile (ACN).
# (§5) Sample preparation: At collection time point, 2 μL of reaction mixtures were pipetted out into 15 μL MALDI matrix solution (saturated solution of sinapinic acid in 1:1 ACN:water solution containing 0.75% trifluoroacetic acid (TFA)) deposited on 384 well polypropylene plate. Resulting solution was mixed by aspiration, centrifuged at 2000 g for 1 minute, then 1.5 μL aliquots were dispensed on pre-treated MALDI target using Beckman Coulter Biomek FXP 96/384-Span-8 Laboratory Automation Workstation. Finally, the MALDI target was dried under mild vacuum to produce spots with fine crystalline structure.
# (§6) Measurements: MALDI-TOF measurements were performed on a Bruker Daltonics rapiflex Tissuetyper TOF-TOF mass spectrometer using linear mode and mass range from 18.6 to 21.6 kDa. Detector gain was set to 3.3×(483 V), sample rate to 5 GS/s, real time smoothing to medium (175 MHz), laser smart beam pattern was set to: “MS Thin Layer M5”, and the laser frequency was 10000 Hz. Spectra were automatically collected using custom AutoXecute method. Laser power was auto adjusted using fuzzy control. The peak selection range was set to be between 19000 and 21500 Da. Peak evaluation uses half width parameter set to be smaller than 40 Da for processed spectrograms (centroid peak detection; smoothed by SavitzkyGolay algorithm using 7 m/z width and 2 cycles; baseline was subtracted using median algorithm with flatness 1 and median level 0.01). Fuzzy control used Proteins/Oligonucleotides protocol with minimum half width 1/10 times above threshold. Up to 40000 satisfactory shots were collected in 10000 shot steps. Dynamic termination was implemented to finish data collection when peak signal/noise ratio was reaching value of 50.
# (§7) Spectra processing: Spectra were smoothed by SavitzkyGolay algorithm using 7 m/z width and three cycles. Centroid peak detection algorithm was used with signal to noise threshold set to 6, relative intensity threshold 4%, peak width 10 m/z and median baseline subtraction using flatness of 1 and median level of 0.01. Peak intensity and area under the peak were evaluated and recorded for all peaks between 19,300 Da and 21,550 Da.
# (§8) Calculation of percent modification: Percent modification was calculated as a ratio of peak height for protein modified by compound to sum of peak height of remaining protein plus peak height for protein modified by compound. If multiple modifications were observed each was calculated as a ratio of peak height for given modification versus sum of peak heights for all observed protein species. Data reported in Table 4 are from 15 minutes reaction time point. […]
# [2] = target: T2, GTP-loaded KRAS4b (amino acids 1-169) G12C/C118S protein (Homo sapiens, UniProt P01116, C118S/G12C); assay: Covalent cysteine 12 modification by MALDI-TOF MS, GTP-loaded KRAS G12C; format: binding; conditions: 15 minutes reaction time point
# T2 construct: KRAS4b (amino acids 1-169) G12C/C118S protein; made in house
# Procedure: as §1, §2, §3, §4, §5, §6, §7, §8
# pERK in NCI-H358 cells = assay: Cell-based pERK HTRF assay (pERK inhibition in H358 cells); conditions: 30 min incubation
# Procedure: Biological Example 3: Cell-Based pERK HTRF Assay
# pERK assays (Perkin Elmer) were used to determine the effectiveness of compounds of the present disclosure in disrupting KRAS G12C protein/effector signaling in cells.
# On Day 1, cells (NCI-H358) were seeded into 96-well plates at 4×10^4 cells/well in complete growth media (RPMI, 10% FBS).
# On Day 2, cells were treated with compounds at 0.25% DMSO. The source plate was created with compounds diluted in media at 5-fold the final assay concentration. The compounds were run in a 9-point concentration curve starting at 75 μM, with a 3-fold dilution between concentrations. 20 μL was transferred onto the cell plates (final volume in wells was 100 μL). Plates were harvested after 30 min incubation by aspirating media and adding kit-supplied 1× supplemented lysis buffer to all wells (75 μl per well). Plates were then placed on a plate shaker and incubated at 850 rpm for an additional 30 min.
# Antibody mixture solution was prepared by diluting aliquoted d2 and Eu Cryptate antibodies 1:20 in kit supplied detection buffer, then mixed the diluted antibodies solutions (1:1 v:v). 4 μL of this solution was then added to a 384-well detection plate (Perkin Elmer; 6008230).
# Samples were homogenized by pipetting up and down and then transferred (16 μL of cell lysates) from the 96-well cell culture plate to two wells of the HTRF 384-well detection plate containing the antibody solution. Plates were centrifuged (524 g for […]) and allowed to incubate between 4 and 24 h at room temperature. Maximum signal is reached after 4 h incubation time and remains stable over a period of 24 hours. Therefore, readings can be made between 4 and 24 h of incubation. Plates were centrifuged again (524 g for 1 min), and analyzed on the En Vision plate reader using the following settings: Excitation 320 nm, Bandwidth 75 nm; Emission 615 nm, Bandwidth 85 nm; Gain 100%; Flashes 100; Lag 60 μs.
# The percent of modification of GppNHp, GTP, or GDP loaded KRAS G12C by MALDI-TOF MS, biochemical Raf1 RBD-KRAS G12C-GppNHp disruption assay IC50, and pERK inhibition IC50 of selected compounds described herein are shown in Table 4. For percent of modification at 15 minutes (MALDI-TOF MS) of GppNHp, GTP, or GDP loaded KRAS G12C: A: percent of modification ≥70%; B: 50≤percent of modification <70%; C: 10%≤percent of modification <50%; D: percent of modification <10%. […] For pERK inhibition in H358 cell assay: A: IC50≤0.1 μM; B: 0.1 μM<IC50≤1 μM; C: IC50>1 μM. Blanks in the table represent that compound was not tested in the indicated assay.
# [3] = target: T3, GDP-loaded KRAS4b (amino acids 1-169) G12C/C118S protein (Homo sapiens, UniProt P01116, C118S/G12C); assay: Covalent cysteine 12 modification by MALDI-TOF MS, GDP-loaded KRAS G12C; format: binding; conditions: 15 minutes reaction time point
# T3 construct: KRAS4b (amino acids 1-169) G12C/C118S protein; made in house
# Procedure: as §1, §2, §3, §4, §5, §6, §7, §8
smiles,measurement,setting,value
"C[C@@H]1[C@H](N(C)c2nc(OC[C@@]34CCCN3C[C@H](F)C4)nc3c(F)c(-c4ccc(F)c5sc(N)c(C#N)c45)c(C(F)(F)F)cc23)CCN1C(=O)[C@H](F)Cl (atropisomer, axis not shown; (aS)) [Compound 183, 2-amino-4-((S)-4-(((2R,3R)-1-((R)-2-chloro-2-fluoroacetyl)-2-methylpyrrolidin-3-yl)(methyl)amino)-8-fluoro-2-(((2R,7aS)-2-fluorotetrahydro-1H-pyrrolizin-7a(5H)-yl)methoxy)-6-(trifluoromethyl)quinazolin-7-yl)-7-fluorobenzo[b]thiophene-3-carbonitrile]",GppNHp-KRAS G12C percent of modification,[1],A (percent of modification ≥70%)
same,GTP-KRAS G12C percent of modification,[2],A (percent of modification ≥70%)
same,IC50,pERK in NCI-H358 cells,< 100 nM
same,GDP-KRAS G12C percent of modification,[3],A (percent of modification ≥70%)
CCN(c1nc(OC[C@@H]2C[C@@H](OC)CN2C)nc2c(F)c(-c3ccc(F)c4sc(N)c(C#N)c34)c(C(F)(F)F)cc12)[C@@H]1CCN(C(=O)[C@@H](F)Cl)[C@@H]1C [Compound 178],GppNHp-KRAS G12C percent of modification,[1],D (percent of modification <10%)
same,GTP-KRAS G12C percent of modification,[2],D (percent of modification <10%)
same,IC50,"pERK in NCI-H358 cells; Homo sapiens, NCI-H358, 0.5 h",100 to 1000 nM
same,GDP-KRAS G12C percent of modification,[3],D (percent of modification <10%)
CCN(c1nc(OC[C@@H]2C[C@@H](OC)CN2C)nc2c(F)c(-c3ccc(F)c4sc(N)c(C#N)c34)c(C(F)(F)F)cc12)[C@@H]1CCN(C(=O)[C@H](F)Cl)[C@@H]1C [Compound 179],GppNHp-KRAS G12C percent of modification,[1],B (50≤percent of modification <70%)
same,GTP-KRAS G12C percent of modification,[2],C (10%≤percent of modification <50%)
same,IC50,"pERK in NCI-H358 cells; Homo sapiens, NCI-H358, 0.5 h",< 100 nM
same,GDP-KRAS G12C percent of modification,[3],C (10%≤percent of modification <50%)
C[C@@H]1CN(c2nc(OC[C@@]34CCCN3C[C@H](F)C4)nc3c(F)c(-c4ccc(F)c5sc(N)c(C#N)c45)c(C(F)(F)F)cc23)[C@@H](C)CN1C(=O)[C@@H](F)Cl [Compound 180],GppNHp-KRAS G12C percent of modification,[1],D (percent of modification <10%)
same,GTP-KRAS G12C percent of modification,[2],D (percent of modification <10%)
same,IC50,"pERK in NCI-H358 cells; Homo sapiens, NCI-H358, 0.5 h",< 100 nM
same,GDP-KRAS G12C percent of modification,[3],C (10%≤percent of modification <50%)
C[C@@H]1CN(c2nc(OC[C@@]34CCCN3C[C@H](F)C4)nc3c(F)c(-c4ccc(F)c5sc(N)c(C#N)c45)c(C(F)(F)F)cc23)[C@@H](C)CN1C(=O)[C@H](F)Cl [Compound 181],GppNHp-KRAS G12C percent of modification,[1],D (percent of modification <10%)
same,GTP-KRAS G12C percent of modification,[2],D (percent of modification <10%)
same,IC50,"pERK in NCI-H358 cells; Homo sapiens, NCI-H358, 0.5 h",100 to 1000 nM
same,GDP-KRAS G12C percent of modification,[3],D (percent of modification <10%)
CCN(c1nc(OC[C@@]23CCCN2C[C@H](F)C3)nc2c(F)c(-c3ccc(F)c4sc(N)c(C#N)c34)c(C(F)(F)F)cc12)[C@H]1CCN(C(=O)[C@@H](F)Cl)C1 [Compound 186],GppNHp-KRAS G12C percent of modification,[1],C (10%≤percent of modification <50%)
same,GTP-KRAS G12C percent of modification,[2],B (50≤percent of modification <70%)
same,IC50,"pERK in NCI-H358 cells; Homo sapiens, NCI-H358, 0.5 h",< 100 nM
same,GDP-KRAS G12C percent of modification,[3],C (10%≤percent of modification <50%)
CCN(c1nc(OC[C@@]23CCCN2C[C@H](F)C3)nc2c(F)c(-c3ccc(F)c4sc(N)c(C#N)c34)c(C(F)(F)F)cc12)[C@H]1CCN(C(=O)[C@H](F)Cl)C1 [Compound 187],GppNHp-KRAS G12C percent of modification,[1],B (50≤percent of modification <70%)
same,GTP-KRAS G12C percent of modification,[2],B (50≤percent of modification <70%)
same,IC50,"pERK in NCI-H358 cells; Homo sapiens, NCI-H358, 0.5 h",< 100 nM
same,GDP-KRAS G12C percent of modification,[3],B (50≤percent of modification <70%)
"C[C@@H]1[C@H](N(C)c2nc(OC[C@@]34CCCN3C[C@H](F)C4)nc3c(F)c(-c4ccc(F)c5sc(N)c(C#N)c45)c(C(F)(F)F)cc23)CCN1C(=O)/C=C/c1nc(C(C)(F)F)no1 [Compound 188, 2-amino-4-(4-(((2R,3R)-1-((E)-3-(3-(1,1-difluoroethyl)-1,2,4-oxadiazol-5-yl)acryloyl)-2-methylpyrrolidin-3-yl)(methyl)amino)-8-fluoro-2-(((2R,7aS)-2-fluorotetrahydro-1H-pyrrolizin-7a(5H)-yl)methoxy)-6-(trifluoromethyl)quinazolin-7-yl)-7-fluorobenzo[b]thiophene-3-carbonitrile]",GppNHp-KRAS G12C percent of modification,[1],B (50≤percent of modification <70%)
same,GTP-KRAS G12C percent of modification,[2],C (10%≤percent of modification <50%)
same,IC50,"pERK in NCI-H358 cells; Homo sapiens, NCI-H358, 0.5 h",< 100 nM
same,GDP-KRAS G12C percent of modification,[3],B (50≤percent of modification <70%)
CO[C@@H]1C[C@@H](COc2nc(N(C)[C@@H]3CCN(C(=O)/C=C/c4nc(C(C)(F)F)no4)[C@@H]3C)c3cc(C(F)(F)F)c(-c4ccc(F)c5sc(N)c(C#N)c45)c(F)c3n2)N(C)C1 [Compound 189],GppNHp-KRAS G12C percent of modification,[1],B (50≤percent of modification <70%)
same,GTP-KRAS G12C percent of modification,[2],C (10%≤percent of modification <50%)
same,IC50,"pERK in NCI-H358 cells; Homo sapiens, NCI-H358, 0.5 h",< 100 nM
same,GDP-KRAS G12C percent of modification,[3],B (50≤percent of modification <70%)
COC1CC(COc2nc(N(C)C3CCN(C(=O)/C=C/c4nc(C(C)(F)F)no4)C3C)c3cc(Cl)c(-c4ccc(F)c5sc(N)c(C#N)c45)c(F)c3n2)N(C)C1 (stereo not shown) [Compound 190],GppNHp-KRAS G12C percent of modification,[1],B (50≤percent of modification <70%)
same,GTP-KRAS G12C percent of modification,[2],B (50≤percent of modification <70%)
same,IC50,"pERK in NCI-H358 cells; Homo sapiens, NCI-H358, 0.5 h",< 100 nM
same,GDP-KRAS G12C percent of modification,[3],B (50≤percent of modification <70%)
